Tested on: A498 complex spheroids with HUVEC/MSC, growth
Experiment: Anticancer human tumor A498 cell line growth inhibition [AhR];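 note: seven day exposure starting three days after spheroid seeding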;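 for viability, T/C: luminescence signal used as a surrogate for viable cells; luminescence viability scaled so 100% equals DMSO vehicle wells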
Details: for IC50: curve of first compound; for viability, T/C: stronger effect = lower value
Summary of the method: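 Agents were dosed in half-log steps down from roughly clinical Cmax, or from 10 microM where Cmax was unknown, alone and with AhR antagonists. Read-out: percent test/control growth of tumor spheroids containing HUVEC and MSC stromal cells.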

[1] = second compound 0.1 µM, first compound 0.0316 µM
[2] = second compound 0.1 µM, first compound 0.1 µM
[3] = second compound 0.1 µM, first compound 0.316 µM
[4] = second compound 0.1 µM, first compound 1 µM
[5] = second compound 0.1 µM, first compound 3.16 µM
[6] = second compound 0.1 µM, first compound 10 µM
[7] = second compound 0.316 µM, first compound 0.0316 µM
[8] = second compound 0.316 µM, first compound 0.1 µM
[9] = second compound 0.316 µM, first compound 0.316 µM
[10] = second compound 0.316 µM, first compound 1 µM
[11] = second compound 0.316 µM, first compound 3.16 µM
[12] = second compound 0.316 µM, first compound 10 µM
[13] = second compound 1 µM, first compound 0.0316 µM
[14] = second compound 1 µM, first compound 0.1 µM
[15] = second compound 1 µM, first compound 0.316 µM
[16] = second compound 1 µM, first compound 1 µM
[17] = second compound 1 µM, first compound 3.16 µM
[18] = second compound 1 µM, first compound 10 µM
[19] = second compound 3.16 µM, first compound 0.0316 µM
[20] = second compound 3.16 µM, first compound 0.1 µM
[21] = second compound 3.16 µM, first compound 0.316 µM
[22] = second compound 3.16 µM, first compound 1 µM
[23] = second compound 3.16 µM, first compound 3.16 µM
[24] = second compound 3.16 µM, first compound 10 µM
[25] = second compound 10 µM, first compound 0.0316 µM
[26] = second compound 10 µM, first compound 0.1 µM
[27] = second compound 10 µM, first compound 0.316 µM
[28] = second compound 10 µM, first compound 1 µM
[29] = second compound 10 µM, first compound 3.16 µM
[30] = second compound 10 µM, first compound 10 µM

## CC1COCCN1c1cc(C2(S(C)(=N)=O)CC2)nc(-c2ccnc3[nH]ccc23)n1 (stereo not given) + Cc1ccccc1N=Nc1ccc(NC(=O)c2ccnn2C)c(C)c1
Second compound 0.1 µM
  IC50: 2510 nM
Second compound 0.316 µM
  IC50: 2070 nM
Second compound 1 µM
  IC50: 1820 nM
Second compound 3.16 µM
  IC50: 1880 nM
Second compound 10 µM
  IC50: 2030 nM
[1]
  viability, T/C: 84.6%
[2]
  viability, T/C: 85.4%
[3]
  viability, T/C: 84.3%
[4]
  viability, T/C: 66%
[5]
  viability, T/C: 46.6%
[6]
  viability, T/C: 23.2%
[7]
  viability, T/C: 101%
[8]
  viability, T/C: 90.5%
[9]
  viability, T/C: 88.3%
[10]
  viability, T/C: 68.1%
[11]
  viability, T/C: 38.9%
[12]
  viability, T/C: 25.7%
[13]
  viability, T/C: 81.7%
[14]
  viability, T/C: 78.2%
[15]
  viability, T/C: 82.2%
[16]
  viability, T/C: 61.7%
[17]
  viability, T/C: 38.2%
[18]
  viability, T/C: 21.2%
[19]
  viability, T/C: 83%
[20]
  viability, T/C: 82.4%
[21]
  viability, T/C: 77.2%
[22]
  viability, T/C: 64%
[23]
  viability, T/C: 38.5%
[24]
  viability, T/C: 24.2%
[25]
  viability, T/C: 82.6%
[26]
  viability, T/C: 81.5%
[27]
  viability, T/C: 78.7%
[28]
  viability, T/C: 67.8%
[29]
  viability, T/C: 39%
[30]
  viability, T/C: 25%

## COc1ccc([C@@H](O)c2cc(-c3ncnc4cc(N5CCOCC5)ccc34)c(F)cc2Cl)nn1 + Cc1ccccc1N=Nc1ccc(NC(=O)c2ccnn2C)c(C)c1
Second compound 0.1 µM
  IC50: 252 nM
Second compound 0.316 µM
  IC50: 562 nM
Second compound 1 µM
  IC50: 650 nM
Second compound 3.16 µM
  IC50: 666 nM
Second compound 10 µM
  IC50: 630 nM
[1]
  viability, T/C: 85.8%
[2]
  viability, T/C: 58%
[3]
  viability, T/C: 40.8%
[4]
  viability, T/C: 42.9%
[5]
  viability, T/C: 18.1%
[6]
  viability, T/C: 9.01%
[7]
  viability, T/C: 71.1%
[8]
  viability, T/C: 90.5%
[9]
  viability, T/C: 54.8%
[10]
  viability, T/C: 41.5%
[11]
  viability, T/C: 11.4%
[12]
  viability, T/C: 9.4%
[13]
  viability, T/C: 85.7%
[14]
  viability, T/C: 84%
[15]
  viability, T/C: 81.2%
[16]
  viability, T/C: 31.4%
[17]
  viability, T/C: 10.2%
[18]
  viability, T/C: 6.98%
[19]
  viability, T/C: 91.9%
[20]
  viability, T/C: 92.9%
[21]
  viability, T/C: 71.1%
[22]
  viability, T/C: 38.5%
[23]
  viability, T/C: 12.6%
[24]
  viability, T/C: 6.52%
[25]
  viability, T/C: 83.4%
[26]
  viability, T/C: 83.2%
[27]
  viability, T/C: 67.2%
[28]
  viability, T/C: 37.5%
[29]
  viability, T/C: 17.5%
[30]
  viability, T/C: 7.07%

## O=C(C=Cn1cnc(-c2cc(C(F)(F)F)cc(C(F)(F)F)c2)n1)NNc1cnccn1 + Cc1ccccc1N=Nc1ccc(NC(=O)c2ccnn2C)c(C)c1
Second compound 0.1 µM
  IC50: 97.1 nM
Second compound 0.316 µM
  IC50: 55.1 nM
Second compound 1 µM
  IC50: 51.9 nM
Second compound 3.16 µM
  IC50: 43.5 nM
Second compound 10 µM
  IC50: 61.8 nM
Second compound 0.1 µM, first compound 0.00949 µM
  viability, T/C: 88.7%
Second compound 0.1 µM, first compound 0.03 µM
  viability, T/C: 77.2%
Second compound 0.1 µM, first compound 0.0949 µM
  viability, T/C: 47.9%
Second compound 0.1 µM, first compound 0.3 µM
  viability, T/C: 30.3%
Second compound 0.1 µM, first compound 0.949 µM
  viability, T/C: 19.8%
Second compound 0.1 µM, first compound 3 µM
  viability, T/C: 13.3%
Second compound 0.316 µM, first compound 0.00949 µM
  viability, T/C: 74.7%
Second compound 0.316 µM, first compound 0.03 µM
  viability, T/C: 62.4%
Second compound 0.316 µM, first compound 0.0949 µM
  viability, T/C: 39.1%
Second compound 0.316 µM, first compound 0.3 µM
  viability, T/C: 21.9%
Second compound 0.316 µM, first compound 0.949 µM
  viability, T/C: 19.1%
Second compound 0.316 µM, first compound 3 µM
  viability, T/C: 16.2%
Second compound 1 µM, first compound 0.00949 µM
  viability, T/C: 56.9%
Second compound 1 µM, first compound 0.03 µM
  viability, T/C: 75.9%
Second compound 1 µM, first compound 0.0949 µM
  viability, T/C: 31.9%
Second compound 1 µM, first compound 0.3 µM
  viability, T/C: 17.9%
Second compound 1 µM, first compound 0.949 µM
  viability, T/C: 17.6%
Second compound 1 µM, first compound 3 µM
  viability, T/C: 20.2%
Second compound 3.16 µM, first compound 0.00949 µM
  viability, T/C: 70.5%
Second compound 3.16 µM, first compound 0.03 µM
  viability, T/C: 62%
Second compound 3.16 µM, first compound 0.0949 µM
  viability, T/C: 24.6%
Second compound 3.16 µM, first compound 0.3 µM
  viability, T/C: 29.8%
Second compound 3.16 µM, first compound 0.949 µM
  viability, T/C: 21.4%
Second compound 3.16 µM, first compound 3 µM
  viability, T/C: 19.4%
Second compound 10 µM, first compound 0.00949 µM
  viability, T/C: 73.8%
Second compound 10 µM, first compound 0.03 µM
  viability, T/C: 68.4%
Second compound 10 µM, first compound 0.0949 µM
  viability, T/C: 37.8%
Second compound 10 µM, first compound 0.3 µM
  viability, T/C: 29.6%
Second compound 10 µM, first compound 0.949 µM
  viability, T/C: 20.3%
Second compound 10 µM, first compound 3 µM
  viability, T/C: 18.8%
